pIC50: −log10 of the molar value. Like-named read-outs stand apart in the source and are kept apart here.

The target of the assay is T1, RORγ ligand-binding domain (Homo sapiens, UniProt P51449).
T1 construct: Gal4 (galactose-responsive transcription factor); expressed in transfected cells; host or cells: HEK293, transient co-transfection
T1 sequence (P51449 269-508 limits assumed): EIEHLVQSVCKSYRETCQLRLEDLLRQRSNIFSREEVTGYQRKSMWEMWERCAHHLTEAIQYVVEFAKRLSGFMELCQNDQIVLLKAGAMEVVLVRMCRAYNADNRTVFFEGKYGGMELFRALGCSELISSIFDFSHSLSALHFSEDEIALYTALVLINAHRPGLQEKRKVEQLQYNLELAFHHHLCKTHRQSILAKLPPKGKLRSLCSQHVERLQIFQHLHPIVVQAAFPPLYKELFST
As to the kind of experiment: RORγ Reporter Assay (Gal4). The format is cell-based. The method, then: The HEK293 cell line is co-transfected transiently with two plasmids, one with the RORγ ligand-binding domain fused to galactose-responsive transcription factor (Ga14), and the other with the luciferase reporter gene and Gal binding sites (UAS). This construction allows to determine the RORT activity in a cellular system through the measurement of luminescence.
A suspension of RORγ reporter cells was dispensed into plates and cultured 2 h at 37° C. and 5% CO2. Media formulation consisted in DMEM/F-12 medium (Gibco) supplemented with 10% heat inactivated FBS (Sigma-Aldrich), non-essential aminoacids (Sigma-Aldrich), 2 mM Glutamax (Gibco) and 100 U/mL penicillin (Sigma-Aldrich). Dose-response curves with compounds were prepared in 100% DMSO and further diluted 100-fold in culture medium. Compound solutions were added to the plate containing cells (final DMSO concentration of 0.1%) and incubated for 24 h at 37° C. and 5% CO2. Luciferase detection reagent was added to each well, and relative light units (RLUs) were quantified from each assay well using a plate reading luminometer.
Values of average RLU±S.D. were computed for all treatment sets, followed by the calculations of percent-reduction of RORT activity in response to respective test compound. The following formula was used: activity=100*[1−[[…]] where the theoretical minimum reduction (0% reduction). […] These calculations were performed in excel-fit software using X-204 model curve.

[1] abbreviates: HEK293 cells, luciferase reporter, 24 h incubation, absolute IC50, read-out: IC50.
The mark [2] stands for this setting: stated as a bound only (Tables 5 a, 6, 7), read-out: Gal4 assay IC50.

Take `N#Cc1cn(CC2(O)CCN(CC(N)=O)CC2)c2ncnc(N(Cc3ccc(C(F)(F)F)cc3)C3CC3)c12` [Example 3P6-4, 2-(4-((5-cyano-4-(cyclopropyl(4-(trifluoromethyl)benzyl)amino)-7H-pyrrolo[2,3-d]pyrimidin-7-yl)methyl)-4-hydroxypiperidin-1-yl)acetamide]: the pIC50 under setting [1] was 6.53.
On the same count and under the same terms, for `NC(=O)CN1CCC(Cn2ccc3c(N(Cc4ccc(C(F)(F)F)cc4)C4CC4)ncnc32)C(F)(F)C1` (single isomer, unassigned) [Example K8-1-2] the value was 8.40; for `CCN(Cc1ccc(-c2cnn(C)c2)cc1)c1ncnc2c1ccn2C[C@@H]1CCN(CC(N)=O)C[C@H]1O` (relative stereo) [P6-34″, rel-2-((3R,4R)-4-((4-(ethyl(4-(1-methyl-1H-pyrazol-4-yl)benzyl)amino)-7H-pyrrolo[2,3-d]pyrimidin-7-yl)methyl)-3-hydroxypiperidin-1-yl)acetamide], 7.92; for `NC(=O)CN1CC[C@@H](Cn2ccc3c(N4CCOC[C@H]4c4cccc(C(F)(F)F)c4)ncnc32)[C@H](O)C1` (single isomer, unassigned) [Example P6-04-1], 7.33.
On to `NC(=O)CN1CC[C@@H](Cn2ccc3c(N4CCOC[C@@H]4c4ccc(C(F)(F)F)cn4)ncnc32)[C@H](F)C1` (single isomer, unassigned) [Example Q4-1-1, 2-((3R*,4R*)-3-fluoro-4-((4-((S)-3-(5-(trifluoromethyl)pyridin-2-yl)morpholino)-7H-pyrrolo[2,3-d]pyrimidin-7-yl)methyl)piperidin-1-yl)acetamide], for which the pIC50 was 6.77 under setting [1] and over 6.30 under setting [2].
On to `NC(=O)CN1CC[C@@H](Cn2cc(F)c3c(N(Cc4cnc(C(F)(F)F)nc4)C4CC4)ncnc32)[C@H](O)C1` (racemic) [Example P6-17, rac-2-((3R,4R)-4-((4-(cyclopropyl((2-(trifluoromethyl)pyrimidin-5-yl)methyl)amino)-5-fluoro-7H-pyrrolo[2,3-d]pyrimidin-7-yl)methyl)-3-hydroxypiperidin-1-yl)acetamide], for which, under setting [1], the pIC50 is 7.37.
Same read-out and setting: for `NC(=O)CN1CCC(O)(Cn2cnc3c(N(Cc4ccc(C(F)(F)F)cc4)C4CC4)ncnc32)CC1` [Example 3P6-3, 2-(4-((6-(cyclopropyl(4-(trifluoromethyl)benzyl)amino)-9H-purin-9-yl)methyl)-4-hydroxypiperidin-1-yl)acetamide] the value was 7.14; for `CCN(Cc1ccc(C(F)(F)F)cc1F)c1ncnc2c1ccn2C[C@@]1(O)CCN(CC(N)=O)C[C@@H]1O` (racemic) [Example L5-3-1, rac-2-((3R,4R)-4-((4-(ethyl(2-fluoro-4-(trifluoromethyl)benzyl)amino)-7H-pyrrolo[2,3-d]pyrimidin-7-yl)methyl)-3,4-dihydroxypiperidin-1-yl)acetamide], 7.20.
Still for that read-out and setting: the value for `CCN(Cc1ccc(-n2cccn2)cc1F)c1ncnc2c1ccn2C[C@@]1(O)CCN(CC(N)=O)C[C@@H]1O` (relative stereo) [R5-5″, Rel-2-((3R,4R)-4-((4-(ethyl(2-fluoro-4-(1H-pyrazol-1-yl)benzyl)amino)-7H-pyrrolo[2,3-d]pyrimidin-7-yl)methyl)-3,4-dihydroxypiperidin-1-yl)acetamide] was 7.82; that for `NC(=O)CN1CC[C@@H](Cn2ccc3c(N(Cc4ccc(C(F)(F)F)cn4)C4CC4)ncnc32)[C@H](F)C1` (single isomer, unassigned) [Example K8-3-1] was 7.12; that for `NC(=O)CN1CC[C@@H](Cn2ccc3c(N4CCOC[C@@H]4c4ccc(C(F)(F)F)cc4)ncnc32)[C@H](O)C1` (single isomer, unassigned) [Example P6-01-2, 2-((3R*,4R*)-3-hydroxy-4-((4-((S)-3-(4-(trifluoromethyl)phenyl)morpholino)-7H-pyrrolo[2,3-d]pyrimidin-7-yl)methyl)piperidin-1-yl)acetamide] was 7.60.
The same measure, in the same setting: for `CN(Cc1ccc(C(F)(F)F)cc1)c1ncnc2c1c(F)cn2CC1(O)CCN(CC(N)=O)CC1` [Example 3P6-5, 2-(4-((5-fluoro-4-(methyl(4-(trifluoromethyl)benzyl)amino)-7H-pyrrolo[2,3-d]pyrimidin-7-yl)methyl)-4-hydroxypiperidin-1-yl)acetamide] the value was 7.06; for `NC(=O)CN1CC[C@@H](Cn2ccc3c(N(Cc4ccc(C(F)(F)F)cc4)C4CC4)ncnc32)[C@H](F)C1` (single isomer, unassigned) [Example K8-2-1], 8.21.
As to `NC(=O)CN1CCC(Cn2ccc3c(N4CCOC[C@@H]4c4ccc(C(F)(F)F)cn4)ncnc32)CC1` [Example Q4-2, (S)-2-(4-((4-(3-(5-(trifluoromethyl)pyridin-2-yl)morpholino)-7H-pyrrolo[2,3-d]pyrimidin-7-yl)methyl)piperidin-1-yl)acetamide], the pIC50 was 6.48 under setting [1] and over 6.30 under setting [2].
Turning to `NC(=O)CN1CCC(Cn2cc(F)c3c(N(Cc4ccc(C(F)(F)F)nc4)C4CC4)ncnc32)CC1` [Example P6-10, 2-(4-((4-(cyclopropyl((6-(trifluoromethyl)pyridin-3-yl)methyl)amino)-5-fluoro-7H-pyrrolo[2,3-d]pyrimidin-7-yl)methyl)piperidin-1-yl)acetamide], under setting [1], the pIC50 is 7.03.
Still for that read-out and setting: the value for `NC(=O)CN1CC[C@@H](Cn2ccc3c(N(Cc4ccc(C(F)(F)F)cn4)C4CC4)ncnc32)[C@H](F)C1` (single isomer, unassigned) [Example K8-3-2] was 7.66.
On the same count and under the same terms, for `CC(C(N)=O)N1CCC(Cn2cnc3c(N(Cc4ccc(C(F)(F)F)cc4)C4CC4)ncnc32)CC1` (centres unmarked) [Example P6-08, 2-(4-((6-(cyclopropyl(4-(trifluoromethyl)benzyl)amino)-9H-purin-9-yl)methyl)piperidin-1-yl)propanamide] the value was 6.64; for `N#Cc1cn(CC2CCN(CC(N)=O)CC2)c2ncnc(N(Cc3ccc(C(F)(F)F)cc3)C3CC3)c12` [Example P6-07, 2-(4-((5-cyano-4-(cyclopropyl(4-(trifluoromethyl)benzyl)amino)-7H-pyrrolo[2,3-d]pyrimidin-7-yl)methyl)piperidin-1-yl)acetamide], 6.55; for `CCN(Cc1ccc(-c2cnn(C)c2)cc1F)c1ncnc2c1ccn2C[C@@H]1CCN(CC(N)=O)C[C@H]1O` (relative stereo) [P6-35″, rel-2-((3R,4R)-4-((4-(ethyl(2-fluoro-4-(1-methyl-1H-pyrazol-4-yl)benzyl)amino)-7H-pyrrolo[2,3-d]pyrimidin-7-yl)methyl)-3-hydroxypiperidin-1-yl)acetamide], 7.62.
Still for that read-out and setting: for `NC(=O)CN1CC[C@@H](Cn2ccc3c(N4CCOC[C@@H]4c4cccc(C(F)(F)F)c4)ncnc32)[C@H](O)C1` (single isomer, unassigned) [Example P6-03-2] the value was 7.59.
For the compound `NC(=O)Cc1ccc(Cn2ccc3c(N(Cc4ccc(C(F)(F)F)cc4)C4CC4)ncnc32)cc1` [Example I1, reference compound], the pIC50 is, setting by setting: (Table 5 b, bound estimated from % inhibition at 0.1 and/or 1 uM, read-out: RORγ Gal4 assay (based on % inhibition at 0.1 and/or 1 uM) IC50) over 7.00; under setting [2], over 7.00.
For `NC(=O)CN1CC[C@@H](Cn2ccc3c(N(Cc4ccc(C(F)(F)F)cc4)C4CC4)ncnc32)[C@H](F)C1` (single isomer, unassigned) [Example K8-2-2], the pIC50 under setting [1] was 8.51.
On the same count and under the same terms, for `NC(=O)CN1CC[C@@H](Cn2cnc3c(N(Cc4ccc(C(F)(F)F)cc4)C4CC4)ncnc32)[C@H](O)C1` (single isomer, unassigned) [Example P6-26-1] the value was 7.19; for `CC(C)N(Cc1ccc(C(F)(F)F)cc1)c1ncnc2c1ncn2C[C@@H]1CCN(CC(N)=O)C[C@H]1O` (racemic) [Example P6-22, rac-2-((3R,4R)-3-hydroxy-4-((6-(isopropyl(4-(trifluoromethyl)benzyl)amino)-9H-purin-9-yl)methyl)piperidin-1-yl)acetamide], 7.11; for `NC(=O)CN1CC[C@@H](Cn2cnc3c(N(Cc4cccc(C(F)(F)F)c4)C4CC4)ncnc32)[C@H](O)C1` (racemic) [Example P6-20, rac-2-((3R,4R)-4-((6-(cyclopropyl(3-(trifluoromethyl)benzyl)amino)-9H-purin-9-yl)methyl)-3-hydroxypiperidin-1-yl)acetamide], under 6.00.
On to `NC(=O)CN1CC[C@@H](Cn2ccc3c(N4CCOC[C@@H]4c4cccc(C(F)(F)F)c4)ncnc32)[C@H](O)C1` (single isomer, unassigned) [Example P6-03-1], for which, under setting [1], the pIC50 is 7.89.

Values taken from patent publication US11780843B2, “Compounds active towards nuclear receptors” (NUEVOLUTION A/S, priority 2020, dated 2023).
